# Tests used:
# MCF-7 cells = assay: MTT cell proliferation assay, MCF-7; format: cell-based, human; settings: Homo sapiens, MCF7; MTT, 24 hours treatment, curve fitting; read-out: IC50, proliferation of MCF-7 cells
# Experimental: FIG. 8. Effects of HCB on the proliferation of MCF-7 cells. MCF-7 cells were seeded in 96 well plates and treated with drugs at varied concentration for 24 hours. MTT assay was performed to determine remaining viable cells in each well. Results are represented as mean±S.D. (n=7). IC50 was determined by curve fitting.
# 3-(4,5-Dimethylthiazol-2-yl)-2,5-diphenyltetrazolium Bromide (MTT) Cell Proliferation Assay. To cells grown in 96-well-tissue culture plate, 20 μl/well of MTT solution (5 mg/ml in PBS) was added. After 1-2 hours incubation at 37° C., the plate was centrifuged. Supernatant was discarded and 100 μl DMSO was added to dissolve water insoluble formazan, and the absorbance was read at 540 nm with a plate reader.
# SARS-CoV-2 [1] = assay: SARS-CoV-2 antiviral assay in Vero cells; format: cell-based; settings: Severe acute respiratory syndrome coronavirus 2, Vero
# [2] = tested on: 293T human embryonic kidney cells over-expressing the ACE2 receptor; assay: Cytotoxicity assay in 293T/ACE2 cells; settings: 293T/ACE2 cytotoxicity
# [3] = Cytotoxicity assay in 293T/ACE2 cells; settings: human, HEK293T/17 cells expressing human ACE2
# Vero cells = assay: Cytotoxicity assay in Vero cells
# SARS-CoV-2 [4] = assay: microbe, parasite or virus in culture; format: cell-based
# in vitro = settings: African green monkey, Vero E6 cells
compound,measurement,setting,value
"N=C(NCC12C3C4C5C3C1C5C42)NC(=N)NCC12C3C4C5C3C1C5C42 (centres unmarked) [DCB, Dicubanomethyl Biguanide]",IC50,MCF-7 cells,22100 ± 1700 nM
"CC(F)(F)CCCCNC(=N)NC(=N)NCC12C3C4C5C3C1C5C42 (centres unmarked) [HCB-F2, N1-5′,5′-difluorohexyl-N5-(cuban-1-yl)methyl-biguanide]",IC50,MCF-7 cells,13500 nM
"N=C(NCCCCCC(F)(F)F)NC(=N)NCC12C3C4C5C3C1C5C42 (centres unmarked) [HCB-F3, N1-6′,6′,6′-trifluorohexyl-N5-(cuban-1′-yl)methyl-biguanide]",IC50,MCF-7 cells,13700 nM
CCC(CC)COC(=O)[C@H](C)N[P@](=O)(OC[C@H]1O[C@@](C#N)(c2ccc3c(N)ncnn23)[C@H](O)[C@@H]1O)Oc1ccccc1 [remdesivir],IC50,SARS-CoV-2 [1]; read-out: antiviral IC50,1040 nM
same,IC90,SARS-CoV-2 [1]; read-out: antiviral IC90,2250 nM
same,CC10,[2],> 100 nM
same,CC50,[3],> 100 nM
same,CC10,Vero cells,> 286 nM
same,IC50,"SARS-CoV-2 [4]; Severe acute respiratory syndrome coronavirus 2, 293T/ACE2, read-out: antiviral IC50",20 nM
same,IC90,"SARS-CoV-2 [4]; Severe acute respiratory syndrome coronavirus 2, 293T/ACE2, read-out: antiviral IC90",22 nM
same,CC50 at 48 h,in vitro,> 20000 nM

# Reference: patent US20240067603A1, “CUBANYL BIGUANIDE COMPOUNDS” (REGENTS OF THE UNIVERSITY OF MINNESOTA, priority 2020, published 2024)
